The subject of test [1] is SW48 (human colon cancer cells). The experiment in a line: inhibition of SW48 cell proliferation (CellTiter Glo). To be noted: 72 hrs, read-out: SW-48 proliferation IC50. Format: cell-based. Put shortly:
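Cells plated at 5,000/well and grown 24 hrs were exposed to conjugates for 72 hrs at 37° C, 5% CO2, in a ten-point three-fold series starting at 10 μM; vehicle was 0.01% DMSO. Proliferation was read by CellTiter Glo. % inhibition was taken relative to vehicle, with IC50 from four-parameter nonlinear regression.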
(In ATP-based viability assays light output follows the ATP content of the culture.)

A further test concerns the target T1, human NTSR1 (Homo sapiens, UniProt P30989).
T1 construct: host or cells: HEK-293 cells (membrane preparations)
The experiment in a line: radioligand-receptor binding assay, [125I] labeled neurotensin (Eurofins Panlabs). To be noted: [125I] neurotensin 0.02 nM, membranes from NTSR1 expressing HEK-293 cells, 45 minute incubation, Cheng and Prusoff; read-out: NTSR1 binding Ki. Put shortly: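 Membranes from HEK-293 cells expressing human NTSR1 incubated 45 min with 0.02 nM [125I]neurotensin and conjugate in 6-point 3-fold dilutions from 100 or 10 nM; bound radioactivity counted after filtration. IC50 by nonlinear regression, converted to Ki via Cheng–Prusoff using historical ligand Kd.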

The subject of test [2] is HT-29 cells (human colon cancer cells). The experiment in a line: inhibition of HT29 cell proliferation (Cell Titer Glo 2.0). The test is classed as cell-based. To be noted: 72 h. The protocol: Conjugates were assessed in an in vitro assay evaluating inhibition of cell proliferation. HT-29 cells (human colon cancer cells) were seeded in white walled 96-well plates at 10,000 cells per well in 100 μl McCoy's 5a (Invitrogen) media supplemented with 10% Fetal Bovine Serum (Invitrogen). After allowing cells to settle overnight, 5 μl of 20× test article was added to each well in replicate and incubated for 72 h. 72 hours after addition of compound, plates were removed from incubator and allowed to cool to room temperature. 50 μl of Cell Titer Glo 2.0 (Promega) was added to each well, incubated for 15 minutes, and plates were read on Glomax luminometer (Promega) using the Cell Titer Glo protocol. Raw luminometer readings for each plate were transformed by dividing the experimental well into the mean of untreated control wells. This is reported as ratio of untreated, and is plotted with Prism 6 software (Graph Pad) and fitted with a 4-parameter, variable slope curve.
Conjugates are assessed for receptor-dependent cytotoxicity by the difference between an NTSR1-targeting conjugate, and the corresponding conjugate with the same linker moiety and active agent where the NTSR1-targeting domain has been scrambled.

Where two headings read alike, the source gives them in different places. Numbered stars: 1 amine (or outer) side, 2 acyl side, 3 side chain; on linkers, the order of the positions; unused ones are H or OH. Bridge positions count the residues as written; N and C are the ends. Square brackets hold non-standard residues; d marks the D form. Peptide text beside a SMILES is read from it. I, II: the chains in the order shown. * marks the point of attachment. Propanoyl(3-SS-DM1) = COc1cc2cc(c1Cl)N(C)C(=O)C[C@H](OC(=O)[C@H](C)N(C)C(=O)CCSSCCC(=O)*)[C@]1(C)O[C@H]1[C@H](C)[C@@H]1C[C@@](O)(NC(=O)O1)[C@H](OC)/C=C/C=C(\C)C2; Hexanoyl(6-succinimido-3yl) = O=C1CC([*:1])C(=O)N1CCCCCC(=O)[*:2]; Dolaproine = CO[C@@H]([C@@H]1CCCN1)[C@@H](C)C(=O)O; Dil = CC[C@H](C)[C@H](NC)[C@@H](CC(=O)O)OC; PABC = O=C(OCc1ccc(N[*:1])cc1)[*:2]; NMeR = CN[C@@H](CCCNC(=N)N)C(=O)O; X1 = C[C@@H](N*)[C@@H](O)c1ccccc1; Cit = NC(=O)NCCC[C@H](N)C(=O)O; Pen = CC(C)(S)[C@H](N)C(=O)O; Tle = CC(C)(C)[C@H](N)C(=O)O; NMeV = CN[C@H](C(=O)O)C(C)C

T1 sequence (P30989 whole entry): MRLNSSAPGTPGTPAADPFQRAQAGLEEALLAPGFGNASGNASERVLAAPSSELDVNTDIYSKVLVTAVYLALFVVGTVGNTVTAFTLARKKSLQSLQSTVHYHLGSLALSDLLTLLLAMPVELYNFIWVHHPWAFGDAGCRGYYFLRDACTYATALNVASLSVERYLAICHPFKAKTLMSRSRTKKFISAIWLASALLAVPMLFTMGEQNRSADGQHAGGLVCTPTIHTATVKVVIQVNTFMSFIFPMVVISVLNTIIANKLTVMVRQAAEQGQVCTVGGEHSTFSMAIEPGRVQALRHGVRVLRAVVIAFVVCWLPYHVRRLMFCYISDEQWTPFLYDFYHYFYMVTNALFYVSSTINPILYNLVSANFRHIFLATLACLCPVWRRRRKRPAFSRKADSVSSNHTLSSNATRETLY

For `COc1cc2cc(c1Cl)N(C)C(=O)C[C@H](OC(=O)[C@H](C)N(C)C(=O)CCSSCCC(=O)NCCCC[C@H](NC(C)=O)C(=O)N1CCC[C@H]1C(=O)N(C)[C@@H](CCCNC(=N)N)C(=O)N[C@@H](CCCNC(=N)N)C(=O)N1CCC[C@H]1C(=O)N[C@@H](Cc1ccc(O)cc1)C(=O)N[C@H](C(=O)N[C@@H](CC(C)C)C(=O)O)C(C)(C)C)[C@]1(C)O[C@H]1[C@H](C)[C@@H]1C[C@@](O)(NC(=O)O1)[C@H](OC)/C=C/C=C(\C)C2` [Compound 13] (Ac-K(Propanoyl(3-SS-DM1))P[NMeR]RPY[Tle]L-OH), the IC50 in test [1] (NTSR1 targeted compound) came out at 1.6 nM; in test [2] (NTSR1 targeted compound), 4.9 nM. Further, on human NTSR1, the Ki is 0.48 nM.

As to `COc1cc2cc(c1Cl)N(C)C(=O)C[C@H](OC(=O)[C@H](C)N(C)C(=O)CCSC1CC(=O)N(CCCNC(=O)CNC(=O)[C@H](CC(C)C)NC(=O)[C@H](Cc3ccccc3)NC(=O)CNC(=O)CCC(=O)NCCCC[C@H](NC(C)=O)C(=O)N3CCC[C@H]3C(=O)N(C)[C@@H](CCCNC(=N)N)C(=O)N[C@@H](CCCNC(=N)N)C(=O)N3CCC[C@H]3C(=O)N[C@@H](Cc3ccc(O)cc3)C(=O)N[C@H](C(=O)N[C@@H](CC(C)C)C(=O)O)C(C)(C)C)C1=O)[C@]1(C)O[C@H]1[C@H](C)[C@@H]1C[C@@](O)(NC(=O)O1)[C@H](OC)/C=C/C=C(\C)C2` (some centres unmarked) [Compound 14], the IC50 in test [1] (NTSR1 targeted compound) was found to be 2.2 nM; in test [2] (NTSR1 targeted compound), 17 nM. The Ki at human NTSR1 turned out to be 0.78 nM.

As to `COc1cc2cc(c1Cl)N(C)C(=O)C[C@H](OC(=O)[C@H](C)N(C)C(=O)CCSC1CC(=O)N(CCCCCC(=O)NCCCC[C@H](NC(C)=O)C(=O)N3CCC[C@H]3C(=O)N(C)[C@@H](CCCNC(=N)N)C(=O)N[C@@H](CCCNC(=N)N)C(=O)N3CCC[C@H]3C(=O)N[C@@H](Cc3ccc(O)cc3)C(=O)N[C@H](C(=O)N[C@@H](CC(C)C)C(=O)O)C(C)(C)C)C1=O)[C@]1(C)O[C@H]1[C@H](C)[C@@H]1C[C@@](O)(NC(=O)O1)[C@H](OC)/C=C/C=C(\C)C2` (some centres unmarked) [Compound 15], the IC50 was found to be 70 nM in test [1] (NTSR1 targeted compound) and 96 nM in test [2] (NTSR1 targeted compound). Besides, at human NTSR1, the Ki stood at 1.08 nM.

Regarding `CC[C@H](C)[C@@H]([C@@H](CC(=O)N1CCC[C@H]1[C@H](OC)[C@@H](C)C(=O)N[C@H](C)[C@@H](O)c1ccccc1)OC)N(C)C(=O)[C@@H](NC(=O)[C@H](C(C)C)N(C)C(=O)OCc1ccc(NC(=O)[C@H](CCCNC(N)=O)NC(=O)[C@@H](NC(=O)CCCCCN2C(=O)CC(SC(C)(C)[C@H](NC(C)=O)C(=O)N3CCC[C@H]3C(=O)N[C@@H](CCCNC(=N)N)C(=O)N[C@@H](CCCNC(=N)N)C(=O)N3CCC[C@H]3C(=O)N[C@@H](Cc3ccc(O)cc3)C(=O)N[C@H](C(=O)N[C@@H](CC(C)C)C(=O)O)C(C)(C)C)C2=O)C(C)C)cc1)C(C)C` (stereo partly drawn) [Compound 53] (I: Ac-[Pen]PRRPY[Tle]L-OH / II: V[Cit][PABC][NMeV]V[Dil][Dolaproine]-X1; linker I:1-II:N via Hexanoyl(6-succinimido-3yl)), the IC50 in test [1] (NTSR1 targeted compound) came to 17 nM; in test [2] (NTSR1 targeted compound) it was 16 nM. In addition, the Ki on human NTSR1 was determined as 3.15 nM.

Turning to `CC[C@H](C)[C@@H]([C@@H](CC(=O)N1CCC[C@H]1[C@H](OC)[C@@H](C)C(=O)N[C@H](C)[C@@H](O)c1ccccc1)OC)N(C)C(=O)[C@@H](NC(=O)[C@H](C(C)C)N(C)C(=O)OCCSSC(C)(C)[C@H](NC(C)=O)C(=O)N1CCC[C@H]1C(=O)N[C@@H](CC(C)C)C(=O)N1CCC[C@H]1C(=O)N[C@@H](CCCNC(=N)N)C(=O)N[C@H](C(=O)N[C@@H](CCCNC(=N)N)C(=O)N[C@@H](Cc1ccc(O)cc1)C(=O)O)C(C)(C)C)C(C)C` [Compound 92], the results for the IC50 in test [1] (NTSR1 scrambled compound) and in test [2] (NTSR1 scrambled compound) were 18 nM and 2.2 nM, respectively.

As usually defined, the Ki is a dissociation constant, usually derived from enzyme kinetics or from competition with a known ligand.

These data come from US20200078468A1, “NEUROTENSIN RECEPTOR BINDING CONJUGATES AND FORMULATIONS THEREOF” (priority 2016, published 2020).
